According to patent US20060040298A1, “Rhesus monkey NURR1 nuclear receptor” (priority 2004, published 2006):

Legend:
Format in all cases: cell-based, Macaca mulatta (rhesus monkey)
[1] = molecular target: T1, GR/NURR1 chimera (rat GR DBD fused to rhNURR1 LBD) (UniProt P06536+P43354); test: GR/NURR1 chimera transactivation of the MMTV-LUC reporter in transfected CHO cells; conditions: FIG. 6; for NURR1 agonist activity: CHO cells co-transfected with GR/NURR1 chimera and reporter gene expression cassette; for luciferase expression from the MMTV-LUC reporter plasmid: CHO cells, compared to compound F and TOFA
T1 construct: expressed in transfected cells; host or cells: CHO cells, transient transfection of the pSG5 plasmid
T1 sequence (P06536+P43354 fused, change not shown): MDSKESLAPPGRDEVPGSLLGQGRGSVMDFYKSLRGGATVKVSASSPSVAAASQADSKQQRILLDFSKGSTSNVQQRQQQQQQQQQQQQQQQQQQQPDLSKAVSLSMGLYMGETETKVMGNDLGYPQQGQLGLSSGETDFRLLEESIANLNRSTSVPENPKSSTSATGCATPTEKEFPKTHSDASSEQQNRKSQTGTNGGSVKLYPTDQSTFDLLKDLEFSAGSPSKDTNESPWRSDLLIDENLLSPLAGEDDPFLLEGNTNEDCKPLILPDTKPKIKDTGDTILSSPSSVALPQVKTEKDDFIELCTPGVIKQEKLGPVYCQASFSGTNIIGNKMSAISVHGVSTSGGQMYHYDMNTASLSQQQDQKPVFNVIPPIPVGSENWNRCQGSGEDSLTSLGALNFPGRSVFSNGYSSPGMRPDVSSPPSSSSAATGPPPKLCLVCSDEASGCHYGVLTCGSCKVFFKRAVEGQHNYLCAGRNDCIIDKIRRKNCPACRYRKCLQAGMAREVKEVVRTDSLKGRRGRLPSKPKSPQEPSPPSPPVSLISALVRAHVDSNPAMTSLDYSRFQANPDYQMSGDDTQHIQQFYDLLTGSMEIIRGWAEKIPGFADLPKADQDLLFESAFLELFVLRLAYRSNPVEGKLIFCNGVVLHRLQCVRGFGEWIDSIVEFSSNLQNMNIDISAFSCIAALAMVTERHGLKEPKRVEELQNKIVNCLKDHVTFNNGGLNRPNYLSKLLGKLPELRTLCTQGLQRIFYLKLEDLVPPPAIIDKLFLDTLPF
Description: A nucleic acid encoding a chimeric nuclear receptor comprising the rat glucocorticoid receptor (GR) DBD fused to the rhNURR1 LBD was constructed and the nucleic acid inserted downstream of the SV40 promoter in plasmid pSG5. The rat GR DBD consists of about amino acid 1 to about amino acid 505 and the rhNURR1 LBD consists of the amino acid sequence beginning from about amino acid 329 to about amino acid 598 (See FIG. 2). A nucleic acid encoding the rat GR DBD, which consisted of nucleotides 1 to 1583 (and which included the proximal 5′ untranslated sequences), was ligated to the nucleic encoding the rhNURR1 (nucleotides 329 to 1794). At the junction in the fusion protein between amino acid 505 of the rat GR DBD and amino acid 329 of the rhNURR1 LDB there are three extra amino acids, Alanine, Arginine, and Glutamic acid, which are encoded by the oligonucleotide 5′-GCTCGAGAA-3′ (SEQ ID NO:11) which includes an XhoI restriction enyme site.
The chimeric nuclear receptor was constructed by ligating the rat GRDBD encoding nucleotide fragment (nucleotides 1 to 1583) to the rhNURR1 LBD encoding nucleotide fragment (nucleotides 329 to 1794) and then inserting the ligated GRDBD/rhNURR1 LBD nucleotide fragments into the pSG5 plasmid expression vector between the EcoRI and BamHI sites.
A reporter gene expression cassette comprising the MMTV(2xGRE) promoter was constructed as described in Schmidt et al., Mol. Endocrinol. 6(10):1634-41 (1992).
A routine transient transfection assay for identifying agonists of rhNURR1 activity is described. While the transfection uses the FuGENE6 method of Roche Applied Science, Indianapolis, Ind., other transfection methods can be used.
In general, the method consists of plating about 0.8 to 1×10^4 transfected COS-1 or CHO cells per well of 96-well tissue culture plates which are UV and visible light transparent. The media that the cells are plated in is exponential growth medium which consists of phenol red-free DMEM containing 10% fetal bovine serum and 1× penicillin/streptomycin. Incubation conditions are 37° C. and 5% CO2. The transfection is done in batch mode.
For a transfection, the cells are trypsinized and resuspended to about 8×10^4 cells/mL in fresh medium. FuGENE6 is mixed with serum-free medium (for example, OPTIMEM, Invitrogen, Carlsbad, Calif.) at a ratio of 2 to 3. About 0.625 ng of DNA encoding the chimeric receptor of Example 2 and 0.625 ng DNA comprising the MMTV promoter operably linked to the luciferase gene (MMTV-LUC) are added to the FuGENE6 in serum-free medium and the mixture incubated at room temperature for about 20 minutes. The mixture is then added to one mL of the cell suspension and 100 μL aliquots plated to the wells of a 96-well tissue culture plate. Thus, a total ten wells contain cells, each containing about 8,000 cells. About 16 to 24 hours after transfection, for each well, about 1 uL of an analyte in a vehicle such as DMSO is added to the well. At least one well is reserved as a control and receives the vehicle alone. After 24 hours exposure to the analytes, the cells are assayed for luciferase activity. The cells are lysed by a Promega cell culture lysis buffer for approximately 30 min and then the luciferase activity in the extracts is assayed in the 96-well format liminometer (MICROBETA JET 1450, Perkin Elmer, Boston, Mass.). Results are calculated as fold induction of compound treated cells over control treated cells.
The CHO cells were transfected as in Example 3. […]

[2] = molecular target: T2, GR/NURR1 chimera receptor (NURR1 LBD) (UniProt P06536+P43354); test: Relative transactivation of GR/NURR1 chimera receptor versus GR/PPARα chimeric receptor, MMTV-luciferase reporter; conditions: test analytes at 0, 1, 10, and 30 μM in DMSO; FIG. 7
T2 construct: expressed in transfected cells
T2 sequence (P06536+P43354 fused, change not shown): as above
Method: The relative transactivation of GR/NURR1 chimera receptor in response to a panel of test analytes was determined.
To further verify the selective NURR1 LBD-compound interactions, the same compounds were added to cells that had been co-transfected with the MMTV-luciferase reporter gene expression cassette and a gene expression cassette comprising DNA encoding either the chimeric receptor GR/NURR1 or a chimeric GR/PPARα receptor under conditions similar to those in Example 5.
Expression vector 3GR/PPARα contained the chimeric GR/PPARα receptor in which DNA encoding the DNA binding domain of GR was fused to the ligand binding domain of mouse PPARα was inserted into plasmid pSG5 (See Boie et al., J. Biol. Chem. 268: 5530-[…] (1993)).
Then, aliquots of the transfected cells were treated with test analytes at 0, 1, 10, and 30 μM concentrations in DMSO. The test analytes included Bicalutamide, Lovastatin, ZOCOR, and various SARM compounds. The results are shown in FIG. 7 and are expressed as a relative activity in which the activity at each concentration that was obtained with the extracts from the cells cotransfected with GR/NURR1 was divided by the corresponding activity that was obtained from extracts from the cells cotransfected with GR/PPARα. Other chimeric receptors other than GR/PPARα can be used. […]

[3] = molecular target: T2, GR/NURR1 chimera receptor (NURR1 LBD); test: Relative transactivation of GR/NURR1 chimera receptor versus GR/LXRβ chimeric receptor, MMTV-luciferase reporter; conditions: test analytes at 0, 1, 10, and 30 μM in DMSO; 48 hours post-transfection; FIG. 8
Method: Relative transactivation of GR/NURR1 chimera receptor in response to a panel of test analytes was determined.
An MMTV-luciferase reporter gene expression cassette was cotransfected with a gene expression cassette comprising DNA encoding either the chimeric receptor GR/NURR1 or a chimeric receptor comprising GR/LXRβ under transfection conditions similar to those in Example 3.
Expression vector GR/LXRβ was prepared in a similar manner to the GR/PPARα chimeric receptor in Example 5. […]
The next day, the transfected cells were washed and then refed with the appropriate medium containing 5% activated charcoal-stripped serum. […] The results are shown in FIG. 8 and are expressed as a relative activity in which the activity at each concentration that was obtained with cells transfected with the GR/NURR1 was divided by the corresponding activity that was obtained from cells cotransfected with the GR/LXRβ. […]

Structure (SMILES) | NURR1 agonist activity [1] | luciferase expression from the MMTV-LUC reporter plasmid [1] | relative activity (GR/NURR1 activity divided by GR/PPARα activity) [2] | relative activity (GR/NURR1 activity divided by GR/LXRβ activity) [3]
CC[C@H](C)C(=O)O[C@H]1C[C@@H](C)C=C2C=C[C@H](C)[C@H](CC[C@@H]3C[C@@H](O)CC(=O)O3)[C@H]21 [Lovastatin] | NURR1 agonists | increase in luciferase expression | increase in activity | increase in activity
CCCCCCCCCCCCCCOc1ccc(C(=O)O)o1 [TOFA, 5-(tetradecyloxy)-2-furoic acid] | NURR1 agonists | – | – | –
CCC(C)(C)C(=O)O[C@H]1C[C@@H](C)C=C2C=C[C@H](C)[C@H](CC[C@@H]3C[C@@H](O)CC(=O)O3)[C@H]21 [ZOCOR] | NURR1 agonists | increase in luciferase expression | increase in activity | increase in activity
